{
  "source": "patent US20220370468A1",
  "about": "“Methods of treating sleep disorders associated with pain” (Astellas Pharma Global Development, Inc., priority 2019, published 2022)",
  "key": {"[1]": {"test_system": "patients with fibromyalgia", "test": "Phase 2a randomized double-blind placebo-controlled study: mean daily average pain score (NRS)", "type": "in vivo, human", "experimental": "(§1) A phase 2a, randomized, double-blind, placebo-controlled, parallel group study was conducted at 24 sites in the United States to assess the analgesic efficacy and safety of the compound of Formula (I) in patients with fibromyalgia. The study consisted of the following: a screening period of up to 42 days, which included a washout period and a 7-day baseline diary run-in; a 57-day double-blind randomized treatment period with site visits at Days 1, 15, 29, and 57; and a 4-week follow-up period consisting of a clinic visit after 2 weeks and a phone call after 4 weeks. The study was carried out in accordance with the Declaration of Helsinki and approved by the relevant Institutional Review Boards. All participants provided written informed consent prior to the initiation of any study procedures.\nMale and female patients aged 18 to 80 years were included in the trial if they met the American College of Rheumatology (ACR) 1990 and 2010 fibromyalgia diagnostic criteria at screening (Wolfe et al., 1990; Wolfe et al., 2010b). The core diagnostic criteria for fibromyalgia are defined by the 1990 criteria (Wolfe et al., 1990), and while ACR has published newer criteria, the 1990 version is still commonly utilized in clinical trials. […]\nThe primary efficacy endpoint for pain was change from baseline to Week 8 in mean daily average pain score assessed by the Numeric Rating Scale (NRS; 0 to 10 scale). […]\nSecondary efficacy endpoints included the number of patients achieving a ≥30% or ≥50% reduction in mean daily average pain score assessed by NRS (0 to 10 scale) from baseline to Week 8 and end of treatment (EOT; Day 57); change from baseline to Weeks 2, 4, 8, and EOT in the FIQR function, symptoms, and overall impact subscales; and overall improvement assessed by patient global impression of change (PGIC) (Rampakakis et al., 2015) at Weeks 2, 4, 8, and EOT."}, "[2]": {"test_system": "patients with fibromyalgia", "test": "Phase 2a study: patient global impression of change (PGIC)", "type": "in vivo, human", "details": "15 mg once daily", "experimental": "as §1, with “procedures. […]” for “procedures.”\nSecondary efficacy endpoints included the number of patients achieving a ≥30% or ≥50% reduction in mean daily average pain score assessed by NRS (0 to 10 scale) from baseline to Week 8 and end of treatment (EOT; Day 57); change from baseline to Weeks 2, 4, 8, and EOT in the FIQR function, symptoms, and overall impact subscales; and overall improvement assessed by patient global impression of change (PGIC) (Rampakakis et al., 2015) at Weeks 2, 4, 8, and EOT. […]"}, "[3]": {"test": "Nonclinical studies: brain penetration and ADME profile"}, "[4]": {"molecular_target": "Kca3.1 potassium ion channel (Homo sapiens, UniProt O15554)", "test": "Kca3.1 channel activity (stated mechanism)", "type": "biochemical"}},
  "data": [
    {"smiles": "Cc1sc2cc(Cl)ccc2c1-c1ccc(N2CCO[C@H](CNC3CCC3)C2)c(C(=O)O)c1", "note": "[Compound of Formula (I)]", "values": [
      {"measurement": "responder analysis of mean daily average pain score (≥30% or ≥50% reduction) versus placebo", "setting": "[1]; 15 mg once daily", "value": "no statistically significant differences"},
      {"measurement": "change from baseline in mean daily average pain score versus placebo", "setting": "[1]; Weeks 2, 6 and 7, FIG. 1", "value": "statistically significant treatment differences in favor of Compound of Formula (I)"},
      {"measurement": "change from baseline in mean daily average pain score (NRS 0-10), primary endpoint", "setting": "[1]; baseline to Week 8, 15 mg oral once daily, placebo −1.26", "value": "−1.60"},
      {"measurement": "overall patient improvement assessed by PGIC versus placebo", "setting": "[2]", "value": "no statistically significant differences"},
      {"measurement": "brain penetration", "setting": "[3]; nonclinical", "value": "poor brain penetration"},
      {"measurement": "absorption, distribution, metabolism, and excretion (ADME) profile", "setting": "[3]; nonclinical studies", "value": "acceptable"},
      {"measurement": "action on Kca3.1 potassium ion channel", "setting": "[4]", "value": "opener"}
    ]}
  ]
}
